Data set [1] can be described thus: refractive index (Na D-line) (dimensionless). Particulars: 298.15 K; 101.33 kPa; Liquid; Standard Abbe refractometry.
The conditions of data set [2]: Liquid; for mass density: 298.15 K, 101.33 kPa, Pycnometric method; for Normal boiling temperature: Ebulliometric method (Recirculating still).
Data set [3] can be described thus: Boiling temperature at pressure P. Particulars: Liquid, Ebulliometric method (Recirculating still).

± gives the expanded uncertainty stated by the source.

The refractive index is the speed of light in vacuum divided by its phase velocity in the sample. As a reminder, the mass density is mass per unit of volume. Turning to `CCCCOCOC` [1-(methoxymethoxy)-butane], the refractive index in data set [1] came to 1.387 ± 0.0007. Besides, the mass density in data set [2] is reported as 837.1 ± 0.8 kg/m3. Moreover, in data set [2], the Normal boiling temperature stood at 119.44 ± 0.2 °C. Further, the “Boiling temperature at pressure P” value turned out to be 49.24 ± 0.21 °C in data set [3] (8.01 kPa); 70.88 ± 0.2 °C in data set [3] (20 kPa); 81.73 ± 0.2 °C in data set [3] (30 kPa); 85.81 ± 0.2 °C in data set [3] (34.84 kPa); 89.66 ± 0.2 °C in data set [3] (39.85 kPa); 96.50 ± 0.2 °C in data set [3] (50 kPa). Moreover, the “Boiling temperature at pressure P” value in data set [3] (55.02 kPa) was 99.39 ± 0.2 °C.

For `CCCCO` [butan-1-ol], the refractive index in data set [1] worked out at 1.3967 ± 0.0007. In addition, the mass density in data set [2] was found to be 805.2 ± 0.7 kg/m3.

On to `CCCO` [propan-1-ol], for which the refractive index in data set [1] amounted to 1.3833 ± 0.0007. Further, in data set [2], the mass density is given as 799.3 ± 0.7 kg/m3 and the Normal boiling temperature amounted to 97.16 ± 0.2 °C.

For the origin of these results see the NIST ThermoML archive (doi:10.1016/j.fluid.2014.12.029).
